US20070060605A1, “Compositions and methods for inhibiting platelet activation and thrombosis” (priority 2001, published 2007)

What was measured:
[1] = test system: platelets; assay: Platelet aggregation (aggregometer); format: cell-based, human; conditions: for IC50: Homo sapiens, Platelet
Protocol: Platelet aggregation profiling is a standard methodology, generally performed with an instrument adapted for that express purpose, for example, a Platelet Aggregation Profiler (BioData, Horsham, Pa.). The assays can generally be performed according to the instructions of the manufacturer. As exemplary conditions, 400 μl of PRP are incubated with inhibitor for 15 minutes at room temperature. The sample is then incubated for 3 minutes at 37° C. in the Platelet Aggregation Profiler. The instrument is calibrated with platelet poor plasma serving as a blank. A baseline tracing is established by monitoring the light transmittance of PRP being stirred at 1200 rpm. Aggregation is initiated by the addition of SFLLR (200 μM) and the percent of platelet aggregation is measured by the change in light transmittance for 6 minutes following addition of SFLLR.

[2] = test system: platelets; assay: Agonist-induced platelet granule secretion / activation (P-selectin expression by flow cytometry; ADP/ATP release); format: cell-based, human; conditions: for IC50: Homo sapiens, Platelet
Protocol: In order to monitor ATP release, a cocktail of 100 μM SFLLR (synthesized using solid phase Fmoc chemistry on an Applied Biosystems model 430A peptide synthesizer) and 3 mg/ml of luciferin/luciferase (Sigma, St. Louis, Mo.) in a volume of 10 μl is added to 20 μl of PRP. Samples are immediately analyzed for luminescence. Activated platelets supply the ATP necessary for luminescence of the luciferin/luciferase assay. Assays can be performed at high throughput through use of a microtiter plate system, e.g., 384-well plates and a Multidrop 384 (Thermo Labsystems, Helsinki), read with a high density imaging system, e.g., the Tundra system (Imaging Research, St. Catherine's, Ontario).
In order to assay platelet activation by cell surface marker expression, fresh PRP is isolated from donors who have not ingested aspirin for two weeks prior to donation. PRP (40 μl) is incubated with known or suspected inhibitor in DMSO or DMSO alone for 15 min. The sample is then incubated with the indicated agonist (e.g., SFLLR) for 10 min. Following incubation of the sample with the indicated agonist, 10 μl of reaction mixture is transferred to 5 μl of phycoerythrin (PE)-conjugated AC 1.2 anti-P-selectin antibody (for assessment of P-selectin surface expression) or fluorescein isothiocyanate (FITC)-conjugated PAC-1 antibody (for assessment of GPIIbIIIa activation). PBS (500 μl) is added to the sample after a 20 min incubation and the platelets are analyzed immediately by flow cytometry. Flow cytometry can be performed using, for example, a Becton-Dickinson FACSCalibur flow cytometer or its equivalent. Fluorescent channels are set at logarithmic gain. Ten thousand particles are acquired for each sample. A 530/30 band pass filter is used for FL-1 fluorescence. A 585/42 band pass filter is used for FL-2 fluorescence. FITC is measured in the FL-1 channel and PE is measured in the FL-2 channel. Data are analyzed using, for example, CellQuest software on a Macintosh PowerPC, or their equivalents.
Compounds were tested for the ability to inhibit agonist-induced ADP/ATP release from platelet dense granules using a luciferin-luciferase reporter system. In this assay, compounds were incubated with platelet-rich plasma (PRP) for 30 min. A cocktail of the platelet agonist and luciferin-luciferase was then added to the wells. Plates were immediately analyzed using a Tundra high density luminescence imager. […] As a control, compounds were also screened in a platelet-free assay for the ability to inhibit luciferin-luciferase upon exposure to ATP.
Each of the compounds was tested for inhibition of platelet activation in response to the agonists SFLLR (a thrombin mimic), U46619 (a thromboxane A2 mimic), ADP and the phorbol ester PMA.
Compounds were also tested by flow cytometry for the inhibition of SFLLR-induced GPIIbIIIa activation and P-selectin expression. In these experiments, freshly obtained PRP was prepared from healthy volunteers who had not ingested aspirin for two weeks prior to donation. Forty μl of PRP was incubated with inhibitor in DMSO or DMSO alone for 15 min. The sample was then incubated with the indicated agonist for 10 min. Following incubation of the sample with the indicated agonist, 10 μl of reaction mixture was transferred to 5 μl of PE-conjugated AC1.2 anti-P-selectin antibody (for assessment of P-selectin surface expression) or FITC-conjugated PAC-1 antibody (for assessment of GPIIbIIIa activation). PBS (500 μl) was added to the sample after a 20 min incubation and the platelets were analyzed immediately by flow cytometry. Flow cytometry was performed using a Becton-Dickinson FACSCalibur flow cytometer. Fluorescent channels were set at logarithmic gain. Ten thousand particles were acquired for each sample. A 530/30 band pass filter was used for FL-1 fluorescence. A 585/42 band pass filter was used for FL-2 fluorescence. FITC was measured in the FL-1 channel and PE was measured in the FL-2 channel.

For `CC1CC(=O)NN=C1c1ccc(N)c([N+](=O)[O-])c1` (stereo not drawn) [6-(4-Amino-3-nitro-phenyl)-5-methyl-4,5-dihydro-2H-pyridazin-3-one], the SFLLR-induced platelet aggregation ([1]; agonist SFLLR) was “potent inhibitor”, the “ADP- and collagen-induced granule release less potent than SFLLR and U46619” value [2] was “at least 25 fold” and the “ADP-induced responses inhibited less effectively than SFLLR and U46619 responses” value ([2]; ADP vs SFLLR and U46619) was “approximately 20 fold”. For the same compound, the IC50 ([2]; agonist ADP, read-out: IC50s of inhibition of platelet granule secretion induced with ADP) was 8 µM, the IC50 ([2]; agonists SFLLR and U-46619, read-out: IC50 SFLLR- and U-46619-induced activation) was 0.3 µM and the IC50 ([2]; agonist Collagen, read-out: IC50 collagen-induced platelet granule release) was 70 µM. For the same compound, the “Inhibition of PMA-induced platelet activation” value ([2]; agonist PMA) was “did not inhibit” and the “Inhibition of PMA-induced activation” value ([2]; agonist PMA, up to 1000 μM) was “No inhibition”.
With `CCCCCn1c2c(c(=N)c3ccccc31)CCC2` [JF081204{5C}] the IC50 ([1]; agonist U-46619, read-out: IC50 Platelet Aggregation Induced by U-46619) was 400 µM, the IC50 ([1]; agonist Collagen, read-out: IC50 Platelet Aggregation Induced by Collagen) was greater than 200 µM and the IC50 ([1]; agonist Epinephrine, read-out: IC50 Platelet Aggregation Induced by Epinephrine) was 5 µM. The IC50 ([1]; agonist SFLLRN, read-out: IC50 Platelet Aggregation Induced by SFLLRN) was 2 µM, the IC50 ([1]; agonists SFLLRN, epinephrine, read-out: IC50 SFLLRN- and epinephrine-induced platelet aggregation) was less than 5 µM and the “Inhibition of U46619- and collagen-induced platelet aggregation” value ([1]; agonists U46619, collagen) was “not effective”. For the same compound, the “U46619-, A23187-, and PMA-induced P-selectin expression less potent than SFLLR” value [2] was “at least 150 fold”, the IC50 ([2]; agonist A23187, read-out: IC50 P-Selectin Expression Induced by A23187) was greater than 300 µM and the IC50 ([2]; agonist PMA, read-out: IC50 P-Selectin Expression Induced by PMA) was 300 µM. For the same compound, the IC50 ([2]; agonist SFLLRN, maximally stimulatory dose, read-out: IC50 P-Selectin Expression Induced by SFLLRN) was 2 µM, the IC50 ([2]; agonist SFLLRN/SFLLR, human platelets, read-out: IC50 SFLLRN-induced P-selectin expression, flow cytometry) was 2 to 150 µM and the IC50 ([2]; agonist U46619, read-out: IC50 P-Selectin Expression Induced by U46619) was 400 µM. The “Potency in inhibiting SFLLRLN- and epinephrine-induced activation relative to other agonists” value ([2]; footnote, sentence cut off) was “#inhibit platelet activation induced by the indicated agonist is shown. The potency of this compound in inhibiting SFLLRLN- and epinephrine-induced activation was at least 100-fold greater than that o”.
